Read-outs that look alike come from different tables or passages of the source.
Legend:
[1] = test system: cancers harboring atypical (non-V600E/K) BRAF mutations; test: solid tumor Phase 1b trial of BVD-523, tumor response by RECIST v1.1 and duration of treatment; type: in vivo, human; conditions: for duration of treatment: single patient
Experimental: The waterfall plot depicted in FIG. 2 provides an illustration of human clinical trial patient information showing each individual patient's response to treatment with BVD-523, as measured by % change in tumor burden. Patients generally received 600 mg, twice daily (BID), with some patients receiving a deescalated dose of 300 mg-400 mg BID if side effects were not manageable with other palliative medication. […] The horizontal axis across the plot serves as a baseline measurement for each patient. The vertical axis is a measure of the maximum percentage change from baseline; i.e., percent growth or reduction of tumor burden by radiologic measurement according to RECIST v1.1. Radiologic measurement comprised computed tomography (CT) scan and, rarely, magnetic resonance imaging (MRI). The tumor burden data represented by FIG. 2 is arranged from the worst value (i.e. greatest progression of tumor burden) on the left side of the plot to the best value (i.e., greatest reduction of tumor burden) on the right side of the plot. RECIST v1.1 response criteria for measured target lesions have been described previously. (See Eisenhauer, E. A., et al., New response evaluation criteria in solid tumours: Revised RECIST guideline (version 1.1), European J. of Cancer 45, 228-247 (2009), incorporated by reference herein in its entirety). […] Members of Group 1 are any patients with any BRAF mutation in any tumor type other than colorectal cancer (CRC) and non-small cell lung carcinoma (NSCLC), and that have not been previously treated with a MAPK pathway inhibitor. The members of Group 2 are patients with any BRAF mutation in CRC that have not been previously treated with a MAPK pathway inhibitor. The members of Group 3 are patients having a tumor with a BRAF […] mutation that is refractory to MAPK inhibitor treatment. The members of Group 6 are patients with any BRAF mutation present in NSCLC. […] The duration of treatment for each subject in each group is illustrated from the top (longest treatment duration) to bottom (least treatment duration) of the groups. The horizontal axis represents the duration, in days, that the patient was on the study. […] All 28 patients measured for RECIST v1.1 response criteria are included, plus additional patients not evaluated by RECIST v1.1 (diamond=partial response; circle=stable disease: vertical bar=progressive disease; triangle=not evaluated). The mean duration of BVD-523 treatment before discontinuation for tumors harboring the same BRAF mutation was: […], 73.6 days; […], 208.14 days: […], 50.25 days: […], 73.3 days; […], 63.5 days. For single patient representatives of specific BRAF mutations, the duration of treatment was: […], 304 days: […], 84 days: […], 77 days: BRAF fusion, 65 days: BRAF-AGAP3 rearrangement, 43 days: BRAF exon 15 splice variant, 15 days. By genomic screening of cancer patients for BRAF mutation and treating them prior to full in vitro characterization of those mutations (as a driver mutation), BVD-523 is shown to be useful to interrogate and discover efficacious treatment options for patients carrying mutations in BRAF. The clinical population of patients and the efficacy is not defined primarily by tumor type, but rather mutational status of enzymes such as BRAF, upstream of ERK 1/2 kinase activation.

ERK1/2 [2] = test: autophosphorylation of ERK (mechanism of action of ERK1/2 inhibitors); type: biochemical; conditions: stated in the description, no test described
ERK1/2 [3] = conditions: Morris et al., 2013; cited from earlier work
[4] = 28 evaluable patients, RECIST v1.1, generally 600 mg BID

Row | SMILES | number of patients with partial response (PR) [1, 4] | number of patients with progressive disease at first evaluation [1, 4] | number of patients with stable disease [1, 4] [patients] | patients with partial response or stable disease ([1]; patients with atypical (non-V600E/K) BRAF mutations, RECIST v1.1) | duration of treatment ([1]; BRAF F247L) [days] | duration of treatment ([1]; BRAF G466V) [days] | duration of treatment ([1]; BRAF L485W) [days] | duration of treatment ([1]; BRAF exon 15 splice variant) [days] | duration of treatment ([1]; BRAF fusion) [days] | duration of treatment ([1]; BRAF-AGAP3 rearrangement) [days] | mean duration of treatment before discontinuation ([1]; tumors harboring BRAF D594) [days] | mean duration of treatment before discontinuation ([1]; tumors harboring BRAF G469) [days] | mean duration of treatment before discontinuation ([1]; tumors harboring BRAF K601E) [days] | mean duration of treatment before discontinuation ([1]; tumors harboring BRAF L597) [days] | mean duration of treatment before discontinuation ([1]; tumors harboring BRAF T599 Dup) [days] | effect on autophosphorylation of ERK (ERK1/2 [2]) | effect on autophosphorylation of ERK (ERK1/2 [3])
1 | CC(C)Nc1cc(-c2c[nH]c(C(=O)N[C@H](CO)c3cccc(Cl)c3)c2)c(Cl)cn1 [BVD-523] | Five | Three | 19 | 24 out of 28 | 84 | 77 | 304 | 15 | 65 | 43 | 73.6 | 208.14 | 50.25 | 73.3 | 63.5 | allows for the autophosphorylation of ERK while still inhibiting ERK | 
2 | O=C(Nc1ccc2[nH]nc(-c3ccncc3)c2c1)[C@@H]1CCN(CC(=O)N2CCN(c3ccc(-c4ncccn4)cc3)CC2)C1 [SCH772984] |  |  |  |  |  |  |  |  |  |  |  |  |  |  |  |  | inhibit autophosphorylation of ERK

From patent publication US12582635B2, “Compositions and methods for treating cancer with atypical BRAF mutations” (BIOMED VALLEY DISCOVERIES, INC., priority 2017, dated 2026)
